The subject of experiment [1] is parent strain ABM201. Kind of experiment: Growth of parent strain on Vincent's YEM agar amended with glyphosate. The class given is cell-based, Bradyrhizobium japonicum. On the procedure:
(§1) After the plates were sufficiently dry, about 10^8 to 5×10^8 colony-forming units (CFU) of the parent bacteria (ABM201) (Advanced Biological Marketing, Van Wert, Ohio), determined by serial dilution and plating on nonselective medium, were spread with a sterile, bent glass rod. The plates were carefully wrapped with Parafilm® to prevent the desiccation of the agar growth medium during prolonged incubation. The plates were then incubated at room temperature to 30° C. for approximately 2 to 3 weeks.

Experiment [2] deals with herbicide resistant mutants of B. japonicum strain ABM 201. Kind of experiment: Growth of glyphosate-resistant mutant on Vincent's YEM agar amended with glyphosate. In kind it is cell-based, Bradyrhizobium japonicum. As to conditions: 80 ppm glyphosate; exemplary embodiment (resistant mutant). The protocol:
as §1
Colonies that developed resembled the parent strain and its growth characteristics on non-selective YEM medium. The colonies were convex, entirely opaque, smooth, and only about 1 mm in diameter after 10-14 days of incubation. Mutant frequency was about 5×10^−7 to 1×10^−6.

Turning to `O=C(O)CNCP(=O)(O)O` [glyphosate, N-(phosphonomethyl)glycine], in experiment [1], the “glyphosate concentration that totally inhibits the parent strain” value is on record as “less than 40 ppm”. For the same molecule, the “growth and viability on glyphosate” value in experiment [2] was “normal growth and viability”.
